According to article PMC4801998 (2016):

Experiments:
[1] = tested on: F21D (DNA, G4) GGGTTAGGGTTAGGGTTAGGG; test: FRET melting; details: 5 mM KCl, 95 mM LiCl; 10 mM lithium cacodylate, pH 7.2; 0.4 µM ligand, 0.2 µM F21D
[2] = tested on: Tel22 (DNA, G4) AGGGTTAGGGTTAGGGTTAGGG; test: UV-Vis titration, direct fit; details: 5 mM KCl, 95 mM LiCl, 10 mM lithium cacodylate, stoichiometry fixed, equivalent sites
[3] = tested on: Tel22 (DNA, G4) AGGGTTAGGGTTAGGGTTAGGG; test: fluorescence titration, direct fit; details: 5 mM KCl, 95 mM LiCl; 10 mM lithium cacodylate, pH 7.2, 20 °C; 1.7-2.0 µM PtTMPyP4; equivalent sites
[4] = tested on: TBA (DNA, G4) GGTTGGTGTGGTTGG; test: fluorescence light-switch, plate reader; details: 10 mM lithium cacodylate, pH 7.2, 25 °C, about 0.1 µM PtTMPyP4, DNA:porphyrin 50:1, intensity ratio, not affinity
[5] = tested on: VEGF (DNA, G4) GGGAGGGTTGGGGTGGG; test: fluorescence light-switch, plate reader; details: 5 mM KCl, 95 mM LiCl; 10 mM lithium cacodylate, pH 7.2, 25 °C; about 0.1 µM PtTMPyP4, DNA:porphyrin 50:1; intensity ratio, not affinity
[6] = tested on: cMyc (DNA, G4) TGAGGGTGGGTAGGGTGGGTAA; test: fluorescence light-switch, plate reader; details: 5 mM KCl, 95 mM LiCl; 10 mM lithium cacodylate, pH 7.2, 25 °C; about 0.1 µM PtTMPyP4, DNA:porphyrin 50:1; intensity ratio, not affinity
[7] = tested on: 17B (DNA, single strand) GGGTTACTACGAACTGG; test: fluorescence light-switch, plate reader; details: 5 mM KCl, 95 mM LiCl; 10 mM lithium cacodylate, pH 7.2, 25 °C; about 0.1 µM PtTMPyP4, DNA:porphyrin 50:1; intensity ratio, not affinity
[8] = tested on: G4T4G4 (DNA, G4) GGGGTTTTGGGG; test: fluorescence light-switch, plate reader; details: 10 mM lithium cacodylate, pH 7.2, 25 °C, about 0.1 µM PtTMPyP4, DNA:porphyrin 50:1, intensity ratio, not affinity
[9] = tested on: G4TERT (DNA, G4) AGGGGAGGGGCTGGGAGGGC; test: fluorescence light-switch, plate reader; details: 5 mM KCl, 95 mM LiCl; 10 mM lithium cacodylate, pH 7.2, 25 °C; about 0.1 µM PtTMPyP4, DNA:porphyrin 50:1; intensity ratio, not affinity
[10] = tested on: cKit1 (DNA, G4) GGGAGGGCGCTGGGAGGAGGG; test: fluorescence light-switch, plate reader; details: 5 mM KCl, 95 mM LiCl; 10 mM lithium cacodylate, pH 7.2, 25 °C; about 0.1 µM PtTMPyP4, DNA:porphyrin 50:1; intensity ratio, not affinity
[11] = tested on: ds26 (DNA, duplex) CAATCGGATCGAATTCGATCCGATTG; test: fluorescence light-switch, plate reader; details: 5 mM KCl, 95 mM LiCl; 10 mM lithium cacodylate, pH 7.2, 25 °C; about 0.1 µM PtTMPyP4, DNA:porphyrin 50:1; intensity ratio, not affinity
[12] = tested on: 17A (DNA, single strand) CCAGTTCGTAGTAACCC; test: fluorescence light-switch, plate reader; details: 5 mM KCl, 95 mM LiCl; 10 mM lithium cacodylate, pH 7.2, 25 °C; about 0.1 µM PtTMPyP4, DNA:porphyrin 50:1; intensity ratio, not affinity
[13] = tested on: 26TelG4 (DNA, G4) AGGGGTTAGGGGTTAGGGGTTAGGGG; test: fluorescence light-switch, plate reader; details: 10 mM lithium cacodylate, pH 7.2, 25 °C, about 0.1 µM PtTMPyP4, DNA:porphyrin 50:1, intensity ratio, not affinity
[14] = tested on: Tel22 (DNA, G4) AGGGTTAGGGTTAGGGTTAGGG; test: fluorescence light-switch, plate reader; details: 10 mM lithium cacodylate, pH 7.2, 25 °C, about 0.1 µM PtTMPyP4, DNA:porphyrin 50:1, intensity ratio, not affinity
[15] = tested on: 17AB (DNA, duplex) CCAGTTCGTAGTAACCC/GGGTTACTACGAACTGG; test: fluorescence light-switch, plate reader; details: 5 mM KCl, 95 mM LiCl; 10 mM lithium cacodylate, pH 7.2, 25 °C; about 0.1 µM PtTMPyP4, DNA:porphyrin 50:1; intensity ratio, not affinity
[16] = tested on: Bcl-2 (DNA, G4) GGGCGCGGGAGGGAATTGGGCGGG; test: fluorescence light-switch, plate reader; details: 5 mM KCl, 95 mM LiCl; 10 mM lithium cacodylate, pH 7.2, 25 °C; about 0.1 µM PtTMPyP4, DNA:porphyrin 50:1; intensity ratio, not affinity

C[n+]1ccc(-c2c3nc(c(-c4cc[n+](C)cc4)c4ccc([n-]4)c(-c4cc[n+](C)cc4)c4nc(c(-c5cc[n+](C)cc5)c5ccc2[n-]5)C=C4)C=C3)cc1.[Pd+2]
ΔTm [1]: 30.9 ± 0.4 °C | binding affinity ([2]; pH 7.2): (1.0 ± 0.3) × 10^7 M^-1

C[n+]1ccc(-c2c3nc(c(-c4cc[n+](C)cc4)c4ccc([n-]4)c(-c4cc[n+](C)cc4)c4nc(c(-c5cc[n+](C)cc5)c5ccc2[n-]5)C=C4)C=C3)cc1.[Pt+2]
binding constant [3]: (1.8 ± 0.3) × 10^6 M^-1 | Fluorescence enhancement ([4]; 5 mM KCl, 95 mM LiCl): 29.5 ± 5.4 | Fluorescence enhancement ([4]; 50 mM NaCl, 50 mM LiCl): 32.6 ± 6.8 | ΔTm [1]: 30.7 ± 0.6 °C | Fluorescence enhancement [5]: 76.9 ± 3.8 | Fluorescence enhancement [6]: 28.0 ± 5.0 | Fluorescence enhancement [7]: 43.9 ± 3.0 | Fluorescence enhancement ([8]; 5 mM KCl, 95 mM LiCl): 42.2 ± 9.2 | Fluorescence enhancement ([8]; 50 mM NaCl, 50 mM LiCl): 40.5 ± 12 | Fluorescence enhancement [9]: 85.7 ± 0.9 | Fluorescence enhancement [10]: 28.0 ± 5.6 | binding affinity ([2]; pH 7.2, 20 °C): (5.8 ± 0.8) × 10^6 M^-1 | Fluorescence enhancement [11]: 39.1 ± 5.2 | Fluorescence enhancement [12]: 38.1 ± 1.5 | Fluorescence enhancement ([13]; 5 mM KCl, 95 mM LiCl): 65.4 ± 4.8 | Fluorescence enhancement ([13]; 50 mM NaCl, 50 mM LiCl): 54.1 ± 15 | Fluorescence enhancement ([14]; 5 mM KCl, 95 mM LiCl): 71.8 ± 10 | Fluorescence enhancement ([14]; 50 mM NaCl, 50 mM LiCl): 54.2 ± 14.6 | Fluorescence enhancement [15]: 46.0 ± 0.7 | Fluorescence enhancement [16]: 39.2 ± 5.7
